Data on 15 compounds can be found in patent publication US12043600B2, “Microbiocidal compounds” (SYNGENTA CROP PROTECTION AG, priority 2018, dated 2024).

Read-outs that look alike come from different tables or passages of the source.

Data set [1] deals with Phaeosphaeria nodorum (Septoria nodorum). The experiment in a line: Phaeosphaeria nodorum (Septoria nodorum)/Wheat/Leaf Disc Preventative (Glume Blotch). Type of data set: in vivo. Conditions: Parastagonospora nodorum, foliar, wheat leaf disc preventative, compared to untreated control. The protocol:
Wheat leaf segments cv. Kanzler are placed on agar in a multiwell plate (24-well format) and sprayed with the formulated test compound diluted in water. The leaf disks are inoculated with a spore suspension of the fungus 2 days after application. The inoculated test leaf disks are incubated at 20° C. and 75% rh under a light regime of 12 h light/12 h darkness in a climate cabinet and the activity of a compound is assessed as percent disease control compared to untreated when an appropriate level of disease damage appears in untreated check leaf disks (5-7 days after application).

Data set [2] has as its system Mycosphaerella graminicola (Septoria tritici). The experiment in a line: Mycosphaerella graminicola (Septoria tritici)/Liquid Culture (Septoria Blotch). Type of data set: cell-based. Conditions: Zymoseptoria tritici; for inhibition of growth at 20 ppm: liquid culture, compared to untreated control. As for the experimental part:
Conidia of the fungus from cryogenic storage are directly mixed into nutrient broth (PDB potato dextrose broth). After placing a (DMSO) solution of test compound into a microtiter plate (96-well format), the nutrient broth containing the fungal spores is added. […] The data are presented as the percentage of disease control of each compound for the biological tests against G. lagenarium (Example B3), P. recondita preventative (Example B13), P. teres (Example B15) and M. graminicola (Example B19) as described above. The testing rates of each biological test is specifically described in table C1 below.

Data set [3] has as its system Plasmopara viticola. The experiment in a line: whole plant or invertebrate. Type of data set: in vivo. Conditions: foliar, read-out: control of Plasmopara viticola.
Data set [4] has as its system Blumeria graminis f. sp. tritici (Erysiphe graminis f. sp. tritici). Nature of the data set: Blumeria graminis f. sp. tritici/Wheat/Leaf Disc Preventative (Powdery Mildew on Wheat). Type of data set: in vivo. Conditions: foliar, wheat leaf disc preventative, compared to untreated control. The protocol:
Wheat leaf segments cv. Kanzler are placed on agar in a multiwell plate (24-well format) and sprayed with the formulated test compound diluted in water. The leaf disks are inoculated by shaking powdery mildew infected plants above the test plates 1 day after application. The inoculated leaf disks are incubated at 20° C. and 60% rh under a light regime of 24 h darkness followed by 12 h light/12 h darkness in a climate chamber and the activity of a compound is assessed as percent disease control compared to untreated when an appropriate level of disease damage appears on untreated check leaf segments (6-8 days after application).

In data set [5] the test system is Puccinia recondita f. sp. tritici. Nature of the data set: Puccinia recondita f. sp. tritici/Wheat/Leaf Disc Preventative (Brown Rust). Format: in vivo. Conditions: foliar; for pest or weed control at 200 ppm: wheat leaf disc preventative, compared to untreated control, read-out: control of Puccinia recondita f. sp. tritici.
Data set [6] has as its system Phytophthora infestans. Nature of the data set: whole plant or invertebrate. Format: in vivo. Conditions: in Solanum lycopersicum, foliar, read-out: control of Phytophthora infestans.
For data set [7], the system named is Phakopsora pachyrhizi. Nature of the data set: Phakopsora pachyrhizi/Soybean/Preventative (Soybean Rust). Type of data set: in vivo. Conditions: 288 h.
Data set [8] relates to Mycosphaerella arachidis (Cercospora arachidicola). The experiment in a line: Mycosphaerella arachidis (Cercospora arachidicola)/Liquid Culture (Early Leaf Spot). Type of data set: cell-based. Conditions: liquid culture, compared to untreated control. The protocol:
(§1) Conidia of the fungus from cryogenic storage are directly mixed into nutrient broth (PDB potato dextrose broth). After placing a (DMSO) solution of test compound into a microtiter plate (96-well format), the nutrient broth containing the fungal spores is added.

Data set [9] relates to Monographella nivalis (Microdochium nivale). The experiment in a line: Monographella nivalis (Microdochium nivale)/Liquid Culture (Foot Rot Cereals). Format: cell-based. Conditions: liquid culture, compared to untreated control. As for the experimental part:
as §1

Data set [10] has as its system Magnaporthe grisea (Pyricularia oryzae). The experiment in a line: whole plant or invertebrate. Type of data set: in vivo. Conditions: foliar, read-out: control of Magnaporthe grisea.
For data set [11], the system named is Glomerella lagenarium (Colletotrichum lagenarium). Nature of the data set: Glomerella lagenarium (Colletotrichum lagenarium)/Liquid Culture (Anthracnose). Conditions: Colletotrichum orbiculare, liquid culture, compared to untreated control. Type of data set: cell-based.
[12] abbreviates: foliar, soybean leaf disc preventative, compared to untreated control, read-out: control of Phakopsora pachyrhizi.
The mark [13] stands for this setting: Phakopsora pachyrhizi (Soybean rust).
Setting [14] is: Phakopsora pachyrhizi (Soybean rust), read-out: control (%).

`CO/C=C(\Oc1cc(-n2ccc(C(F)(F)F)n2)cc(F)c1C)C(=O)OC` [Compound E-3, methyl (Z)-2-[3-fluoro-2-methyl-5-[3-(trifluoromethyl)pyrazol-1-yl]phenoxy]-3-methoxy-prop-2-enoate]: the melting point lay in the range of 133 to 135 °C. Further, the pest or weed control at 200 ppm in data set [1] is no less than 80%. Moreover, the inhibition of growth at 20 ppm in [2] is no less than 80%. Besides, the pest or weed control at 200 ppm in data set [3] is no less than 80%. Also, in data set [4], the pest or weed control at 200 ppm is no less than 80%. For the same compound, the pest or weed control at 200 ppm in [5] is no less than 80%. In [6], the pest or weed control at 200 ppm is no less than 80%. The pest or weed control at 200 ppm in data set [7] (setting [12]) was no less than 50%. The inhibition of growth at 20 ppm in data set [8] is no less than 80%. Moreover, the inhibition of growth at 20 ppm in data set [9] was no less than 80%.
Compound `CCC(CC)c1ccn(-c2ccc(C)c(O/C(=C\OC)C(=O)OC)c2)n1` [Compound E-4, methyl (Z)-2-[5-[3-(1-ethylpropyl)pyrazol-1-yl]-2-methyl-phenoxy]-3-methoxy-prop-2-enoate] came in with a melting point of 108 to 111 °C. This compound had a pest or weed control at 200 ppm in data set [1] of no less than 80%. In [2], this compound returned an inhibition of growth at 20 ppm of no less than 80%. This compound came in with a pest or weed control at 200 ppm in [4] of no less than 80%. Besides, the pest or weed control at 200 ppm in data set [5] is no less than 80%. The pest or weed control at 200 ppm in [6] was no less than 80%. In addition, the pest or weed control at 200 ppm in data set [7] (setting [12]) was no less than 50%. Also, the inhibition of growth at 20 ppm in data set [8] is no less than 80%. Moreover, the inhibition of growth at 20 ppm in data set [9] was no less than 80%.
As to `CO/C=C(\Oc1cccc(-n2ccc(C)n2)c1)C(=O)OC` [Compound E-9, methyl (Z)-3-methoxy-2-[3-(3-methylpyrazol-1-yl)phenoxy]prop-2-enoate], the inhibition of growth at 20 ppm in data set [2], in [8] and in data set [9] was no less than 80% in each case.
With `CO/C=C(\Oc1cc(-n2cc(Br)c(C3CCCCC3)n2)ccc1C)C(=O)OC` [Compound E-10, methyl (Z)-2-[5-(4-bromo-3-cyclohexyl-pyrazol-1-yl)-2-methyl-phenoxy]-3-methoxy-prop-2-enoate], the melting point is 120 to 126 °C. In addition, in data set [10], the pest or weed control at 200 ppm is no less than 80%. In addition, the inhibition of growth at 20 ppm in data set [2] was no less than 80%. The same compound showed an inhibition of growth at 20 ppm in data set [8] of no less than 80%. Also, in data set [9], the inhibition of growth at 20 ppm is no less than 80%.
Turning to `CCCOc1ccn(-c2ccc(C)c(O/C(=C\OC)C(=O)OC)c2)n1` [Compound E-13, methyl (Z)-3-methoxy-2-[2-methyl-5-(3-propoxypyrazol-1-yl)phenoxy]prop-2-enoate], the melting point fell in the range of 85 to 87 °C.
`CO/C=C(\Oc1cccc(-n2ccc(C3CC3)n2)c1)C(=O)OC` [Compound E-14, methyl (Z)-2-[3-(3-cyclopropylpyrazol-1-yl)phenoxy]-3-methoxy-prop-2-enoate]: the inhibition of growth at 20 ppm in data set [2], in data set [11], in data set [8] and in data set [9] was no less than 80% throughout.
The compound `CO/C=C(\Oc1cc(-n2ccc(C(F)(F)F)n2)cc(OC)c1C)C(=O)OC` [Compound E-22, methyl (Z)-3-methoxy-2-[3-methoxy-2-methyl-5-[3-(trifluoromethyl)pyrazol-1-yl]phenoxy]prop-2-enoate] returned a melting point of 153 to 156 °C. For the same compound, the inhibition of growth at 20 ppm in data set [2] is no less than 80%. Moreover, the pest or weed control at 200 ppm in data set [4] was no less than 80%. Moreover, in data set [5], the pest or weed control at 200 ppm is no less than 80%. Besides, the pest or weed control at 200 ppm in data set [6] is no less than 80%. The inhibition of growth at 20 ppm in data set [8] was no less than 80%. This compound also showed an inhibition of growth at 20 ppm in [9] of no less than 80%.
In turn, `CO/C=C(\Oc1cc(-n2ccc(CSC)n2)ccc1C)C(=O)OC` [Compound E-76, methyl (Z)-3-methoxy-2-[2-methyl-5-[3-(methylsulfanylmethyl)pyrazol-1-yl]phenoxy]prop-2-enoate] came in with a melting point of 78 to 80 °C. Also, in [10], the pest or weed control at 200 ppm is no less than 80%. This compound registered an inhibition of growth at 20 ppm in [2] of no less than 80%. Further, in [3], the pest or weed control at 200 ppm is no less than 80%. Besides, the pest or weed control at 200 ppm in [5] was no less than 80%. Also, the pest or weed control at 200 ppm in data set [6] was no less than 80%. In data set [8], the inhibition of growth at 20 ppm is no less than 80%. Also, the inhibition of growth at 20 ppm in data set [9] is no less than 80%.
As to `CO/C=C(\Oc1cc(-n2ccc(Br)n2)ccc1Br)C(=O)OC` [Compound E-84, methyl (Z)-2-[2-bromo-5-(3-bromopyrazol-1-yl)phenoxy]-3-methoxy-prop-2-enoate], the pest or weed control at 200 ppm was no less than 80% in data set [1]; no less than 80% in data set [3]; no less than 80% in [4]; no less than 80% in data set [5]; no less than 50% in data set [7] (setting [12]). For the same compound, the inhibition of growth at 20 ppm in data set [2], in data set [11], in [8] and in [9] was no less than 80% throughout.
In turn, `CO/C=C(\Oc1cc(-n2ccc(C)n2)ccc1C1CC1)C(=O)OC` [Compound E-106, methyl (Z)-2-[2-cyclopropyl-5-(3-methylpyrazol-1-yl)phenoxy]-3-methoxy-prop-2-enoate] displayed a melting point of 189 to 191 °C. Moreover, the pest or weed control at 200 ppm in data set [3] was no less than 80%. Also, in data set [5], the pest or weed control at 200 ppm is no less than 80%.
`CCc1ccc(-n2ccc(C)n2)cc1O/C(=C\OC)C(=O)OC` [Compound E-107, methyl (Z)-2-[2-ethyl-5-(3-methylpyrazol-1-yl)phenoxy]-3-methoxy-prop-2-enoate] had a melting point of 169 to 171 °C. In addition, in [2], the inhibition of growth at 20 ppm was no less than 80%. Moreover, in data set [5], the pest or weed control at 200 ppm is no less than 80%.
`CO/C=C(\Oc1cc(-n2cc(Cl)c(Cl)n2)ccc1C)C(=O)OC` [Compound E-111, methyl (Z)-2-[5-(3,4-dichloropyrazol-1-yl)-2-methyl-phenoxy]-3-methoxy-prop-2-enoate]: the melting point lay within 140 to 144 °C. The pest or weed control at 200 ppm in data set [1] is no less than 80%. For the same compound, the pest or weed control at 200 ppm in data set [3] was no less than 80%. In addition, the pest or weed control at 200 ppm in [4] is no less than 80%. Further, the inhibition of growth at 20 ppm in data set [11] is no less than 80%. Also, the inhibition of growth at 20 ppm in data set [8] is no less than 80%. In addition, the inhibition of growth at 20 ppm in [9] is no less than 80%.
In data set [7] (setting [13]), `CO/C=C(\Oc1cc(-n2cccc2)ccc1C)C(=O)OC` [Compound X-2, reference compound] came in with a pest or weed control at 0.6 ppm of 0%, a pest or weed control at 2 ppm of 0%, a pest or weed control at 6 ppm of 0% and a pest or weed control at 20 ppm of 0%. The compound further registered a pest or weed control at 60 ppm in data set [7] (setting [13]) of 70%. The pest or weed control at 200 ppm in [7] (setting [14]) amounted to 100%.
For the compound `CO/C=C(\Oc1cc(-c2cccc(C(F)(F)F)n2)ccc1C)C(=O)OC` [Compound X-3, reference compound], in data set [7] (setting [13]), the pest or weed control at 0.6 ppm worked out at 0%, the pest or weed control at 2 ppm was found to be 0%, the pest or weed control at 6 ppm is 0% and the pest or weed control at 20 ppm was determined as 10%. The pest or weed control at 60 ppm in [7] (setting [13]) is 50%. Moreover, the pest or weed control at 200 ppm in data set [7] (setting [14]) worked out at 85%.
Turning to `CCCc1ccn(-c2ccc(C)c(O/C(=C\OC)C(=O)OC)c2)n1` [drawing 151], the inhibition of growth at 6 ppm in data set [2] (M. graminicola (B19), 6 ppm, read-out: Disease control (%)) came out at 100%. Also, the pest or weed control at 60 ppm in data set [5] (P. recondita prev (B13), 60 ppm, read-out: Disease control (%)) is 70%.
